From patent US20240059740A1, “CYCLIC PEPTIDES AND USES THEREOF” (PRE[…] INC., priority 2020, published 2024)
Residues, ends and D or L forms follow the SMILES beside them.

Key:
MMP-9 = assay: Gelatin zymography of conditioned media, MMP-9 production; assay type: cell-based, human; conditions: compared to control containing no peptide
Description: To assess whether the peptide SEQ ID NO.1 impacted MMP-2, MMP-9 and uPA production Zymography was used.
Zymography is a technique for studying hydrolytic enzymes on the basis of substrate degradation. The in-gel zymography hydrolytic enzymes are separated by their molecular weights and detected by their ability to degrade a substrate. To detect the activity of MMP-2 and MMP-9 in various cell lines, conditioned media were collected in 3 independent experiments and analysed by gelatin zymography to quantify the level of gelatin digestion, which reflects MMP-2 and MMP-9 activity and production. Casein-Plasminogen zymography was conducted to determine the activity level of uPA in the conditioned medium from various cell lines. Active uPA converts plasminogen into plasmin which then digests casein, thus clear bands where digestion of casein have occurred indirectly represent uPA activity.
The effect of the peptides on matrix protease production was tested using in-gel zymography. If the substrate included in the gel is gelatin, the enzymes detected are gelatinases: MMP-2 and MMP-9 (the latter is often of low abundance). If the gel contains casein and plasminogen, the enzymes tested are urokinase plasminogen activators (uPA); uPA is a therapeutic target in GBM.
An equal amount of protein from each sample was mixed with 5 μL of Laemmli buffer (0.01% Bromophenol Blue (W/V), 5% SDS (W/V), 22% glycerol (V/V), 14% 0.5 M Tris pH 6.8 (V/V)) and loaded onto a 10% polyacrylamide gel co-polymerized with 1 mg/ml of gelatin, and electrophoresed at 120 V for 2 hours on ice. The gel was incubated in […] solution (Triton X-100 2.5% (V/V), 1 M Tris pH 7.5 5% (V/V), 0.5 M CaCl2 1% (W/V) at room temperature overnight on an orbital shaker. The gel was incubated in a second solution for 3 hours at 37° C. The gel was then stained with Coomassie blue solution (Coomassie blue 0.25%, methanol 45%, acetic acid 10%) and destained in methanol 25% (V/V), acetic acid 10% (V/V) destaining solution until clear bands against the dark background appeared around 72 kDa and 95 kDa, representing MMP-2 and MMP-9 activity, respectively. Clear bands around 50 kDa appeared against the dark background representing uPA activity. The gels were scanned, and uPA, MMP-2 and MMP-9 were quantified by densitometry using NIH Image J software.
SEQ ID NO.1 was compared to a control containing no peptide to evaluate whether the peptide can reduce the production of matrix proteinases. A reduction in the production of matrix proteinases may be anticipated to result in comparatively less degradation of the extra-cellular matrix and so this could be one pathway by which the invasion potential could be reduced. […] This could be confirmed using a MMP-9 quantification kit, and altered production by a transcriptional mechanism can be unveiled using qRT-PCR.

recombinant MMP-2 = biological target: T1, recombinant MMP-2 (Homo sapiens, UniProt P08253); assay: MMP-2 Inhibitor Screening Assay Kit (colorimetric); assay type: biochemical
T1 construct: purchased ab139446
T1 sequence (P08253 110-660): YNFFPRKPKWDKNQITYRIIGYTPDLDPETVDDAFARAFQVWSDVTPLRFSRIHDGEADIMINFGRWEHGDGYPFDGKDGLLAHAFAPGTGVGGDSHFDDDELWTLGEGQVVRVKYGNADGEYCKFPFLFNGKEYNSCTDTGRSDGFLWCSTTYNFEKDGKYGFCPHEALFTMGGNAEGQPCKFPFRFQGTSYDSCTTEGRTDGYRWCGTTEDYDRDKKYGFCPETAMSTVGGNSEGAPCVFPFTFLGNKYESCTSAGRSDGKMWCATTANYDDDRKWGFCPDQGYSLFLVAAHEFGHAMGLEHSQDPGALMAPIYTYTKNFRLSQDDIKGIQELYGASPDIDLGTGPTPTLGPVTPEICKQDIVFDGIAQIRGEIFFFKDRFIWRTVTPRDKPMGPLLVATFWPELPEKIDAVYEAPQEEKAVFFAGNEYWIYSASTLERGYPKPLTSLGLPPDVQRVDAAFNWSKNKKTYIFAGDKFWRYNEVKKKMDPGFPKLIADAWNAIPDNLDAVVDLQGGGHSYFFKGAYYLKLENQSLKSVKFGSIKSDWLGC
Experimental: MMP-2 is an important target for inhibitor screening due to its involvement in cancer growth, angiogenesis, and metastasis. The MMP-2 screening assay was carried out with a commercially available MMP-2 Inhibitor Screening Assay Kit (Colorimetric, Catalog: ab139446) based on the manufacturers protocol. This assay is based on quantification of recombinant MMP-2 activity using a colorimetric assay (MMP-2 degrades a chromogenic substrate). The assay provides NNGH (N-isobutyl-N-(4-methoxyphenylsulfonyl) glycyl hydroxamic acid), a small molecule inhibitor, as a positive control (NNGH). […] Each determination was run in duplicate.
% Inhibition rate=(Vinhibitor/Vcontrol)×100
Briefly, MMP Substrate and MMP Inhibitor were warmed to room temperature to thaw DMSO. MMP Inhibitor (NNGH), MMP-2 substrate and MMP-2 enzyme were diluted with assay buffer to required concentration. 20 μL of MMP-2 enzyme and MMP-2 inhibitor (peptides, Chlorotoxin and NNGH) was added, then 50 μL of assay buffer was added and the reaction mixture incubated at 37° C. for 1 h. After incubation, 10 μL of MMP Substrate was added to start reaction. The reactions were continuously read at 412 nm in a microplate reader. Data was recorded at 1 min. time intervals for 10 to 20 min. The data as was plotted as optical density (OD) versus time for each sample. The reaction velocity (V) was obtained in OD/min: determine the slope of a line fit to the linear portion of the data plot using an appropriate routine. Then using the equation above the inhibitor % activity remaining was calculated. The control was without inhibitor.

CC(C)C[C@@H]1NC(=O)[C@H](C)NC(=O)[C@@H](NC(=O)[C@@H]2CCCN2C(=O)[C@@H](N)CC(C)C)CSSC(C)(C)CNC(=O)CC[C@@H](C(=O)N[C@@H](CCCNC(=N)N)C(N)=O)NC(=O)[C@H](CC(=O)O)NC(=O)[C@H](CC(N)=O)NC1=O [SEQ ID NO: 1, Leu-Pro-c(SSA*-Ala-Leu-Asn-Asp-Glu)-Arg-NH2] (HELM PEPTIDE1{L.P.C.A.L.N.D.E.R.[am]}|CHEM1{[CC(C)(CN[*:2])S[*:1]]}$PEPTIDE1,CHEM1,3:R3-1:R1|PEPTIDE1,CHEM1,8:R3-1:R2$$$V2.0; N-terminus assumed)
metalloprotease production, MMP-9 (MMP-9; 081024 cells): 98.96
metalloprotease production, MMP-9 (MMP-9; U87 cells, listed as SEQ ID NO. 1): 58.61
metalloprotease production, MMP-9 (MMP-9; U87 cells, listed as SEQ ID NO.1): decreased production
metalloprotease production, MMP-9 (MMP-9; U251 cells, listed as SEQ ID NO. 1): 63.4
metalloprotease production, MMP-9 (MMP-9; U251 cells, listed as SEQ ID NO.1): decreased production
remaining activity at 1 µM (recombinant MMP-2; 1 μM, 1 h preincubation at 37° C., lower value = higher inhibitory activity, read-out: % inhibition (Vinhibitor/Vcontrol ×100)): 81%
remaining activity at 10 µM (recombinant MMP-2; 10 μM, lower value = higher inhibitory activity, read-out: % inhibition (Vinhibitor/Vcontrol ×100)): 75.2%
remaining activity at 100 µM (recombinant MMP-2; 100 μM, lower value = higher inhibitory activity, read-out: % inhibition (Vinhibitor/Vcontrol ×100)): 66.9%
inhibition of MMP-2 activity (in words) (recombinant MMP-2; 1 to 100 μM): dose dependent ability to inhibit MMP-2 activity
